Reference: patent publication US7709636B2, “Pyrazole sulfonylurea compound and herbicide” (Nissan Chemical Industries, Ltd., priority 2004, dated 2010)

Tests used:
corn (Zea mays) = experiment: Herbicidal effect test by soil treatment; format: in vivo; conditions: 1.6 g/a, 3 weeks after treatment
How it was run: (§1)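 Read-out is a visual herbicidal-effect rating taken 3 weeks post-treatment. Plants grew from seed sown in sterilized diluvial soil, covered with about 1.5 cm soil, then surface-sprayed with water-diluted wettable powder at a predetermined formulation amount.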

Abutilon avicennae = experiment: Herbicidal effect test by soil treatment; format: in vivo; conditions: 1.6 g/a, 3 weeks after treatment
How it was run: as §1

Polygonum blumei = experiment: Herbicidal effect test by soil treatment; format: in vivo; conditions: 1.6 g/a, 3 weeks after treatment
How it was run: as §1

Stellaria media = experiment: Herbicidal effect test by soil treatment; format: in vivo; conditions: 1.6 g/a, 3 weeks after treatment
How it was run: as §1

soybean (Glycine max) = experiment: Herbicidal effect test by soil treatment; format: in vivo; conditions: 1.6 g/a, 3 weeks after treatment
How it was run: as §1

[1] = tested on: Triticum aestivum (wheat); experiment: Herbicidal effect test by soil treatment; format: in vivo; conditions: 1.6 g/a, 3 weeks after treatment
How it was run: as §1

Echinochloa crus-galli [2] = experiment: Herbicidal effect test by soil treatment; format: in vivo; conditions: 1.6 g/a, 3 weeks after treatment
How it was run: as §1

Avena fatua = experiment: Herbicidal effect test by soil treatment; format: in vivo; conditions: 1.6 g/a, 3 weeks after treatment
How it was run: as §1

Digitaria adscendes = experiment: Herbicidal effect test by soil treatment; format: in vivo; conditions: 1.6 g/a, 3 weeks after treatment
How it was run: as §1

Amaranthus retroflexus = experiment: Herbicidal effect test by soil treatment; format: in vivo; conditions: 1.6 g/a, 3 weeks after treatment
How it was run: as §1

Setaria viridis = experiment: Herbicidal effect test by soil treatment; format: in vivo; conditions: 1.6 g/a, 3 weeks after treatment
How it was run: as §1

Chenopodium album = experiment: Herbicidal effect test by soil treatment; format: in vivo; conditions: 1.6 g/a, 3 weeks after treatment
How it was run: as §1

Black-grass = experiment: Herbicidal effect test by soil treatment; format: in vivo; conditions: 1.6 g/a, 3 weeks after treatment
How it was run: as §1

Ambrosia elatior = experiment: Herbicidal effect test by soil treatment; format: in vivo; conditions: 1.6 g/a, 3 weeks after treatment
How it was run: as §1

Beta vulgaris (beet) = experiment: Herbicidal effect test by soil treatment; format: in vivo; conditions: 1.6 g/a, 3 weeks after treatment
How it was run: as §1

Scirpus juncoides [3] = experiment: Herbicidal effect test in submerged condition by treatment before weed-generation (2); format: in vivo; conditions: 0.3 g/a; submerged paddy soil pot, water surface treated on day of sowing; 3 weeks after treatment
Method: (§2) Herbicidal Effect Test in Submerged Condition by Treatment Before Weed-Generation (2)
(§3) Paddy surface soil was placed in a plastic pot of 1/10000 are, water was poured therein and mixed. After seeds of Scirpus juncoides were sown, paddy surface soil was added by 2 cm, and submerged with water, and then seeds of Echinochloa crus-galli, Scirpus juncoides, Monochoria vaginalis, Rotala indica and Lindernia pyxidaria were sown together. In addition, rice seedlings at 2.5th leaf stage were transplanted, and fixed to the paddy surface in a state where the roots were exposed on the other side. On the day when the seeds were sown, the wettable powder of the present invention prepared according to Formulation Example 1 was diluted with water so as to give a predetermined formulation amount, and the surface of the water was treated with the diluted wettable powder. The plants were grown by putting the pot in a green house at 25 to 30° C. The herbicidal effect for each plant was investigated 3 weeks after treatment with the herbicide according to the criteria indicated in Test Example 1.

Echinochloa crus-galli [4] = experiment: as above; format: in vivo; conditions: 0.3 g/a; submerged paddy soil pot, water surface treated on day of sowing; 3 weeks after treatment
Method: as §2, §3

Monochoria vaginalis [5] = experiment: as above; format: in vivo; conditions: 0.3 g/a; submerged paddy soil pot, water surface treated on day of sowing; 3 weeks after treatment
Method: as §2, §3

Lindernia pyxidaria = experiment: as above; format: in vivo; conditions: 0.3 g/a; submerged paddy soil pot, water surface treated on day of sowing; 3 weeks after treatment
Method: as §2, §3

[6] = tested on: transplanted rice (Oryza sativa); experiment: as above; format: in vivo; conditions: 0.3 g/a; submerged paddy soil pot, rice seedlings at 2.5th leaf stage transplanted; 3 weeks after treatment
Method: as §2, §3

Rotala indica = experiment: as above; format: in vivo; conditions: 0.3 g/a; submerged paddy soil pot, water surface treated on day of sowing; 3 weeks after treatment
Method: as §2, §3

Scirpus juncoides [7] = experiment: Herbicidal effect test in submerged condition by treatment before weed-generation (1); format: in vivo; conditions: 0.64 g/a, water surface treated on day of sowing, 3 weeks after treatment
How it was run: (§4)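 Scores run 0 (≤5% effect) to 5 (≥90%, near-complete death), assessed visually 3 weeks post-treatment. Submerged paddy soil, water 4 cm deep, seeds sown and rice at 2.5th leaf stage transplanted; formulation diluted and poured onto water surface at sowing; greenhouse 25 to 30° C.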

Echinochloa crus-galli [8] = experiment: as above; format: in vivo; conditions: 0.64 g/a, water surface treated on day of sowing, 3 weeks after treatment
How it was run: as §4

Monochoria vaginalis [9] = experiment: as above; format: in vivo; conditions: 0.64 g/a, water surface treated on day of sowing, 3 weeks after treatment
How it was run: as §4

Scirpus juncoides [10] = experiment: Herbicidal effect test in submerged condition by treatment during weed-growth stage (1); format: in vivo; conditions: 0.64 g/a, treated at 1st to 2nd leaf stage, 3 weeks after treatment
How it was run: (§5)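 Paddy-soil pots flooded to 4 cm water depth were sown and grown in a greenhouse at 25 to 30° C until weeds reached 1st to 2nd leaf stage. A wettable powder diluted in water to a predetermined formulation amount was applied to the water surface. Herbicidal effect was scored 3 weeks after treatment against set criteria.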

Echinochloa crus-galli [11] = experiment: as above; format: in vivo; conditions: 0.64 g/a, treated at 1st to 2nd leaf stage, 3 weeks after treatment
How it was run: as §5

Monochoria vaginalis [12] = experiment: as above; format: in vivo; conditions: 0.64 g/a, treated at 1st to 2nd leaf stage, 3 weeks after treatment
How it was run: as §5

direct sown rice = experiment: Herbicidal effect test by soil treatment; format: in vivo, Oryza sativa; conditions: 1.6 g/a, 3 weeks after treatment
How it was run: as §1

Question: What does the source list for `COc1cc(OC)nc(NC(=O)NS(=O)(=O)c2c(C3=NOCC(C)O3)c(Cl)nn2C)n1` (stereo not shown) [Compound 1, N-((4,6-dimethoxypyrimidin-2-yl)aminocarbonyl)-3-chloro-1-methyl-4-(5-methyl-5H,6H-1,4,2-dioxadin-3-yl)pyrazole-5-sulfonamide]?
Answer: herbicidal effect, b: corn (Zea mays) (corn (Zea mays)): 5 (Herbicidal rate 90% or more (almost complete death)); herbicidal effect, H: Abutilon avicennae (Abutilon avicennae): 4 (Herbicidal rate 70% or more and less than 90%); herbicidal effect, L: Polygonum blumei (Polygonum blumei): 5 (Herbicidal rate 90% or more (almost complete death)); herbicidal effect, M: Stellaria media (Stellaria media): 5 (Herbicidal rate 90% or more (almost complete death)); herbicidal effect, c: soybean (Glycine max) (soybean (Glycine max)): 5 (Herbicidal rate 90% or more (almost complete death)); herbicidal effect, e: Triticum aestivum (wheat) [1]: 5 (Herbicidal rate 90% or more (almost complete death)); herbicidal effect, A: Echinochloa crus-galli (Echinochloa crus-galli [2]): 2 (Herbicidal rate 20% or more and less than 40%); herbicidal effect, F: Avena fatua (Avena fatua): 0 (Herbicidal rate 5% or less (little effect)); herbicidal effect, D: Digitaria adscendes (Digitaria adscendes): 4 (Herbicidal rate 70% or more and less than 90%); herbicidal effect, J: Amaranthus retroflexus (Amaranthus retroflexus): 5 (Herbicidal rate 90% or more (almost complete death)); herbicidal effect, E: Setaria viridis (Setaria viridis): 1 (Herbicidal rate 5% or more and less than 20%); herbicidal effect, K: Chenopodium album (Chenopodium album): 5 (Herbicidal rate 90% or more (almost complete death)); herbicidal effect, G: Black-grass (Black-grass): 4 (Herbicidal rate 70% or more and less than 90%); herbicidal effect, I: Ambrosia elatior (Ambrosia elatior): 5 (Herbicidal rate 90% or more (almost complete death)); herbicidal effect, f: Beta vulgaris (beet) (Beta vulgaris (beet)): 5 (Herbicidal rate 90% or more (almost complete death)); herbicidal effect, B: Scirpus juncoides (Scirpus juncoides [3]): 5 (Herbicidal rate 90% or more (almost complete death)); herbicidal effect, A: Echinochloa crus-galli (Echinochloa crus-galli [4]): 5 (Herbicidal rate 90% or more (almost complete death)); herbicidal effect, C: Monochoria vaginalis (Monochoria vaginalis [5]): 5 (Herbicidal rate 90% or more (almost complete death)); herbicidal effect, O: Lindernia pyxidaria (Lindernia pyxidaria): 5 (Herbicidal rate 90% or more (almost complete death)); herbicidal effect, a: transplanted rice (Oryza sativa) [6]: 0 (Herbicidal rate 5% or less (little effect)); herbicidal effect, N: Rotala indica (Rotala indica): 5 (Herbicidal rate 90% or more (almost complete death)); herbicidal effect, B: Scirpus juncoides (Scirpus juncoides [7]): 5 (Herbicidal rate 90% or more (almost complete death)); herbicidal effect, A: Echinochloa crus-galli (Echinochloa crus-galli [8]): 5 (Herbicidal rate 90% or more (almost complete death)); herbicidal effect, C: Monochoria vaginalis (Monochoria vaginalis [9]): 5 (Herbicidal rate 90% or more (almost complete death)); herbicidal effect, B: Scirpus juncoides (Scirpus juncoides [10]): 5 (Herbicidal rate 90% or more (almost complete death)); herbicidal effect, A: Echinochloa crus-galli (Echinochloa crus-galli [11]): 5 (Herbicidal rate 90% or more (almost complete death)); herbicidal effect, C: Monochoria vaginalis (Monochoria vaginalis [12]): 5 (Herbicidal rate 90% or more (almost complete death)); herbicidal effect, d: direct sown rice (direct sown rice): 2 (Herbicidal rate 20% or more and less than 40%)
